This note sets out measurements from patent US20100075360A1, “UV BASED CELL VIABILITY AS AN INDICATOR OF SUN PROTECTION FACTOR AND METHODS OF MEASUREMENT THEREOF” (priority 2008, published 2010).

Each structure is given as a SMILES string. Where two headings read alike, the source gives them in different places.

Data set [1] has as its system Swiss 3T3 fibroblast cells.
Experimental: Swiss 3T3 Mouse fibroblast cells and HaCAT Human keratinocytes were obtained from ATCC and cultured in DMEM medium supplemented with 10% FBS. The confluent cultures are harvested by trypsinization and expanded during two more passages before they were used for the experiments. Medium and other culture components were renewed after 48-72 h. All cell cultures were maintained in a humidified atmosphere at 37° C. in 95% air and 5% CO2.
UV lamp of 14.7 W, 0.3 A, 55V with an intensity of 33.3 μW/cm^2 from Sankyo Denki Co., Ltd.
The neutral red (NR) uptake assay: The NR cytotoxicity assay procedure is a cell survival/viability chemosensitivity assay, based on the ability of viable cells to incorporate and bind neutral red, a supravital dye. NR is a weak cationic dye that readily penetrates cell membranes by non-ionic diffusion, accumulating intracellularly in lysosomes, where it binds with anionic sites in the lysosomal matrix. Alterations of the cell surface or the sensitive lysosomal membrane lead to lysosomal fragility and other changes that gradually become irreversible. Such changes brought about by UV exposure result in a decreased uptake and binding of NR. It is thus possible to distinguish between viable, damaged, or dead cells, which are the basis of this assay. The dye taken up by the cells is subsequently extracted and measured. The dye was dissolved in distilled water at a concentration of 0.5 mg/100 μl. 80 μl of this stock solution was dissolved in 15 ml of pre warmed DMEM medium. The developer solution consists of 25 ml of water, 24.5 ml of ethanol and 0.5 ml of glacial acetic acid. The NRU dye and the developer solutions are to be made fresh before use. After UV exposure and consequent incubation for 72 hrs, the culture medium is replaced with NRU dye and incubated for 3 hrs at 37° C., after which the dye is washed off thrice with PBS. The dye is dissolved in 100 μl of developer solution and incubated at RT for 20 min. The OD was determined at 492 nm using a microplate reader.
Swiss 3T3 fibroblasts were plated in a 96 well micropipette at a seeding density of 3000 cells per well. […] After exposure, the cells were incubated in a CO2 incubator for 48 hrs and developed by the NRU staining technique to analyze the cell viability. The SPF of 1.25% OMC was determined with respect to the untreated cells.
For data set [2], the system named is Swiss 3T3 fibroblast cells. Kind of data set: Percentage of UV protection in Swiss 3T3 fibroblast cells (NRU staining). Type of data set: cell-based, mouse. Conditions: UV B 5 minutes. Here is the method:
The unexposed region of the plate was covered by aluminum foil. […] The percentage of UV protection was calculated with respect to unexposed cells.

As to `CCCCC(CC)COC(=O)C=Cc1ccc(OC)cc1` (stereo not shown) [OMC, Octyl methoxy cinnamate], the figures for the “minimal cytotoxic dose (MCDp) for protected cells” value in data set [1] (1.25% OMC) and in data set [1] (7% OMC) were 0.144 J/cm^2 and 0.54 J/cm^2, respectively. Also, the “% UV toxicity” value in data set [1] (1.25% OMC, UV dosage 0.0072 J/cm^2) stood at 0%; in data set [1] (1.25% OMC, UV dosage 0.0216 J/cm^2), 0%; in data set [1] (1.25% OMC, UV dosage 0.036 J/cm^2), 0%; in data set [1] (1.25% OMC, UV dosage 0.0504 J/cm^2), 0%; in data set [1] (1.25% OMC, UV dosage 0.072 J/cm^2) it was 0%; in data set [1] (1.25% OMC, UV dosage 0.216 J/cm^2), 39.62%. Further, the “% UV toxicity” value was 0% in data set [1] (7% OMC, UV dosage 0.0072 J/cm^2); 0% in data set [1] (7% OMC, UV dosage 0.0216 J/cm^2); 0% in data set [1] (7% OMC, UV dosage 0.036 J/cm^2); 0% in data set [1] (7% OMC, UV dosage 0.0504 J/cm^2); 0% in data set [1] (7% OMC, UV dosage 0.072 J/cm^2); 0% in data set [1] (7% OMC, UV dosage 0.18 J/cm^2). Further, the “% UV toxicity” value in data set [1] (7% OMC, UV dosage 0.432 J/cm^2) turned out to be 0%; in data set [1] (7% OMC, UV dosage 0.54 J/cm^2) it was 7%; in data set [1] (7% OMC, UV dosage 0.648 J/cm^2) it was 9%. For the same compound, the “SPF (MCDp/MCDu)” value in data set [1] (7% OMC, MCDu 0.0216 J/cm^2) is on record as 25. For the same compound, the “% UV protection” value is recorded as 56% in data set [2] (0.15% OMC in culture medium, vs unexposed cells); 71% in data set [2] (0.31% OMC in culture medium); 77% in data set [2] (0.62% OMC in culture medium); 90% in data set [2] (1.25% OMC in culture medium).
